Measurements reported in paper PMC5500888, “Structural insights into the mechanism of the membrane integral N-acyltransferase step in bacterial lipoprotein synthesis” (Nature Communications, 2017).

Key:
LntPae = target: T1, LntPae (Pseudomonas aeruginosa, UniProt Q9ZI86); assay: SDS-PAGE band shift of FSL-1-biotin with western blot; format: biochemical; settings: acyl donor 500 uM; co-substrate FSL-1-biotin 2.5-5 uM; 20 nM enzyme; 0.1% Triton X-100; pH 7.2 or 6.5; 37 C
T1 construct: gene lnt; full-length membrane enzyme, N-terminal thrombin-cleavable His6-tag (pET28a, synthetic gene), expressed in E. coli C41(DE3), purified in LMNG; tag cleavage not described
T1 sequence (Q9ZI86 1-511): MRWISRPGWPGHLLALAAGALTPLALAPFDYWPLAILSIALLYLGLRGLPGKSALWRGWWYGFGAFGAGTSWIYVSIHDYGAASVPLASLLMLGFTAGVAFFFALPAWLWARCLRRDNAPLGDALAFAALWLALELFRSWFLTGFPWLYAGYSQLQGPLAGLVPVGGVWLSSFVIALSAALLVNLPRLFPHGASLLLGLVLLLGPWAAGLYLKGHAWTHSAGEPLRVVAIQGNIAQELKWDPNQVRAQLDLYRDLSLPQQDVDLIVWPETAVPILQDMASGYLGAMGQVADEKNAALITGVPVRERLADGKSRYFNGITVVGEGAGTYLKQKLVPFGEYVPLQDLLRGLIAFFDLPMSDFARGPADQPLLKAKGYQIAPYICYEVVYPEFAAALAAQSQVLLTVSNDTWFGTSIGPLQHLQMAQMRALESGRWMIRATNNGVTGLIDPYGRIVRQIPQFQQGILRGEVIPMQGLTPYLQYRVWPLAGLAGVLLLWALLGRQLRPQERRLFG

LntEco = target: T2, LntEco (Escherichia coli, UniProt P23930); assay: TLC with fluorescence of lyso-NBD-PE formed; format: biochemical; settings: labelled compound; NBD-PE 500 uM; co-substrate FSL-1 150 uM; 8 uM enzyme; 50 mM Tris-HCl pH 7.5, 150 mM NaCl, 1 mM TCEP, 0.02% LMNG; 37 C
T2 construct: gene lnt; full-length membrane enzyme, N-terminal thrombin-cleavable His6-tag (pET28a, synthetic gene), expressed in E. coli C43(DE3), purified in LMNG; tag cleavage not described

| SMILES | SDS-PAGE band shift of FSL-1-biotin with western blot (LntPae) | TLC with fluorescence of lyso-NBD-PE formed (LntEco) |
| --- | --- | --- |
| CCCCCCCC/C=C\CCCCCCCC(=O)OC[C@H](COP(=O)(O)OCC(O)CO)OC(=O)CCCCCCC/C=C\CCCCCCCC (some centres unmarked) [DOPG] | When DOPE was replaced with DOPG or DOPC, the product was formed much less efficiently |  |
| CCCCCCCC/C=C\CCCCCCCC(=O)OC[C@H](COP(=O)(O)OCCN)OC(=O)CCCCCCCCCCCNc1ccc([N+](=O)[O-])c2nonc12 [NBD-PE] |  | Time course of lyso-PE production catalysed by LntEco |
